Marks after values point to notes of the source that are not given here.
Experiments:
[1] = Long term oral toxicity study, rats; assay type: in vivo; conditions: high doses, up to 26 week in rats
Glutamate = test: Receptor binding assay; design: species or system Rat; conditions: sarsasapogenin 10 μM
Procedure: (§1) The receptor binding was investigated using the following method: Sarsasapogenin was incubated with tissue or cell homogenate that expressed the receptor of interest and a known concentration a radiolabelled compound with affinity for the receptor of interest. After the incubation period the non-bound radiolabelled compound was removed and the amount of specific binding was quantified. The amount of specific binding in the presence and absence of sarsasapogenin were compared and the percent inhibition of the binding of the radiolabelled compound by sarsasapogenin was calculated. The source of the receptor, the incubation conditions, the radiolabelled compound used varied depending on each specific assay.

[2] = system: Adrenergic α2, non selective; test: Receptor binding assay; design: species or system Rat; conditions: sarsasapogenin 10 μM
Procedure: as §1

[3] = system: Adrenergic α1, non selective; test: Receptor binding assay; design: species or system Rat; conditions: sarsasapogenin 10 μM
Procedure: as §1

[4] = system: Adrenergic β, non selective; test: Receptor binding assay; design: species or system Rat; conditions: sarsasapogenin 10 μM
Procedure: as §1

GABAA = test: Receptor binding assay; design: species or system Rat; conditions: sarsasapogenin 10 μM
Procedure: as §1

Serotonin 5-HT1 = test: Receptor binding assay; design: species or system Rat; conditions: sarsasapogenin 10 μM
Procedure: as §1

Acetyl CoA synthetase = test: Enzyme activity assay; assay type: biochemical, Yeast; conditions: sarsasapogenin 100 μM
Procedure: (§2) The enzyme activity modulation was investigated using the following method: Sarsasapogenin was incubated with each enzyme plus a specific substrate for each enzyme. After the incubation period the reaction was stopped and the reduction of the specific substrate or the increase in a specific product in the absence and presence of sarsasapogenin was measured and the percent inhibition of the reaction in the presence of sarsasapogenin was calculated. The amount of enzyme used, the incubation conditions, the substrate used and the method of quantification varied depending on each specific assay.

[5] = system: phosphorylated CREB (pCREB); test: Phosphorylated CREB in CHO cells (immunoblot); assay type: cell-based, Chinese hamster; conditions: 10 μM, 24 h, control 0.729 ± 0.112
Procedure: The CHO were incubated with DMSO (0.5%) or sarsasapogenin (10 μM) for 24 h. The cells were then washed with cold PBS, lysed in sodium dodecyl sulfate (SDS) buffer, boiled for 5 min and the protein content measured by the Bradford method. The samples were then separated on SDS polyacrylamide gels and transferred to PVDF (Bio-Rad) membrane. After exposure for 1 h in 5% skimmed milk powder, membranes were incubated overnight at 4° C. in primary antibody: mouse pCREB (Upsdate, 1:1000) and mouse β-actin (Santa Cruz, 1:1000). The membranes were then incubated in peroxidase conjugated secondary antibody (Wuhan Boster Biology Technology, China. 1:2000) for 1 h at room temperature and developed with ECL reagents (Pierce). Membranes were stripped by incubating in 2-mercaptoethanol (100 mM), SDS (2%), Tris HCl (62.5 mM) at pH 6.8 and 50° C. for 30 min Densitometric quantification of immunostaining was performed using Image J analysis system with an image analyzer (Gel Doc 2000, Bio-Rad). The relative amount of immunostaining of each band of pCREB was normalised to the β-actin band run in the same experiment and expressed as arbitrary units.

Functional assay = assay type: biochemical; conditions: smilagenin 1 μM
Procedure: as §2
Using the same methods as described above, the binding of smilagenin (1 μM) to the receptors listed in Table 2 below, and the effect of smilagenin on the activity of the enzymes listed in Table 2 below, were investigated.

BDNF mRNA = BDNF mRNA expression in rat cortical neurones after 48 h incubation (rt RT-PCR); assay type: cell-based; conditions: 10 μM, mean ± s.e.mean, n = 3
Procedure: In a separate experiment, rat cortical neurones were cultured by modification of a method previously described (Eckenstein and Sofroniew, Journal of Neuroscience, 1983, 3, pp. 2286-2291). On day 8, the culture medium was changed to a medium containing vehicle (DMSO, 0.5%) or smilagenin (10 μM) for 48 h and the level of BDNF mRNA in the cortical neurones was assessed by rt RT-PCR.

MPTP-lesioned macaques = test: Parkinsonian disability in MPTP-lesioned macaques; assay type: in vivo, Macaca fascicularis
Procedure: Nineteen female cynomolgus monkeys (Macaca fascicularis, 3.0-4.5 kg, 4-6 years old) were acclimatised to the experimental setting and procedures for 3 months and baseline behaviour was assessed in all animals. Fourteen female macaques received MPTP (0.2 mg/kg/day, s.c.) until marked, stable, parkinsonian symptoms developed. Animals (n=7/group) were randomly assigned to two groups; smilagenin (20 mg/kg/day, p.o.) or vehicle control (HPMC, 0.5% w/v containing Tween 80, 0.2% v/v).
Assessments of parkinsonian disability were made after MPTP administration and following 18 weeks of smilagenin or vehicle administration. Parkinsonian disability was evaluated by post hoc analysis of DVD-recordings by a neurologist blinded to the treatment. At the end of the study the brains were removed and the levels of unbound GDNF and BDNF in the putamen were measured using Multiplex ELISA/Aushon assays. The MPTP treated macaques used in this experiment thus provide an accepted model for Parkinson's disease and similar motor-sensory neurodegenerative conditions.

[6] = system: Glycine, Strychnine-Sensitive; test: Binding assay; design: species or system Rat; conditions: smilagenin 1 μM
BDNF = test: Striatal BDNF in MPTP-lesioned mice (ELISA); assay type: in vivo, C57b1/6 RJ mice; conditions: smilagenin 10 mg/kg/day oral, 60 days, striatum
Procedure: Seven-week old male C57b1/6 RJ mice (C57 mice) received daily injections 1-methyl-4-phenyl-1,2,3,6-tetrahydropyridine (MPTP, 25 mg/kg/day, i.p., for 5 consecutive days) and oral administration of smilagenin (10 mg/kg/day) or vehicle (hydroxylpropylmethylcellulose, HPMC 0.5% w/v containing tween-80 0.2% v/v) for 60 days after which time their brains were removed for quantification of striatal levels of GDNF and BDNF using an ELISA and of dopamine transporter (DAT) levels using [I^125]-RTI binding. DAT is a marker for neuronal damage to dopaminergic neurones.

[7] = system: Rat dopaminergic neurones; test: TH positive neurones and neurite outgrowth after MPP+ exposure; assay type: cell-based; conditions: 10 μM from day 6, MPP+ 2 μM day 8 for 48 h
Procedure: Rat dopaminergic neurones were prepared using a slightly modified previously described method (Brouard et al., Journal of Neuroscience, 1992, 12, pp. 1409-1415). On day 6 the culture medium was replaced with fresh medium or fresh medium containing smilagenin (10 μM) or vehicle (DMSO, 0.25%). On day 8, MPP^+ (2 μM) or vehicle (saline) was added and 48 h later dopaminergic neurones were stained and the concentration of GDNF in the culture medium, neuronal damage and neurite outgrowth were assessed.

Compound	Long term toxicity [1]	Effect (%) (Glutamate)	Effect (%) [2]	Effect (%) [3]	Effect (%) [4]	Effect (%) (GABAA)	Effect (%) (Serotonin 5-HT1)	Effect (%) (Acetyl CoA synthetase)	Phosphorylated CREB (Arbitary units) [5]	Effect (%) (Functional assay)	Relative amount of BDNF mRNA (% of control) (BDNF mRNA)	Median parkinsonian disability post-MPTP administration (MPTP-lesioned macaques; baseline of the smilagenin group, before dosing)	Median parkinsonian disability at week 18 (MPTP-lesioned macaques; smilagenin 20 mg/kg/day p.o., 18 weeks, MPTP vehicle group 41.67)	Effect (%) [6]	BDNF (% increase above MPTP mice) (BDNF)	BDNF (pg/mg tissue) (BDNF)	Neurite outgrowth (% of control) [7]	Number of TH positive neurones per field (% of control) [7]
C[C@H]1CC[C@@]2(OC1)O[C@H]1C[C@H]3[C@@H]4CC[C@@H]5C[C@@H](O)CC[C@]5(C)[C@H]4CC[C@]3(C)[C@H]1[C@@H]2C [Sarsasapogenin, sarsasapogenin]	without showing any signs of toxicity or adverse events	NS (NS = No significant response. Significance was taken as ≧30% stimulation or inhibition)	NS (NS = No significant response. Significance was taken as ≧30% stimulation or inhibition)	NS (NS = No significant response. Significance was taken as ≧30% stimulation or inhibition)	NS (NS = No significant response. Significance was taken as ≧30% stimulation or inhibition)	NS (NS = No significant response. Significance was taken as ≧30% stimulation or inhibition)	NS (NS = No significant response. Significance was taken as ≧30% stimulation or inhibition)	NS (NS = No significant response. Significance was taken as ≧30% stimulation or inhibition)	1.342 ± 0.084^++ Arbitary units									
C[C@@H]1CC[C@@]2(OC1)O[C@H]1C[C@H]3[C@@H]4CC[C@@H]5C[C@@H](O)CC[C@]5(C)[C@H]4CC[C@]3(C)[C@H]1[C@@H]2C [Smilagenin, smilagenin]										NS (NS = No significant response. Significance was taken as ≧30% stimulation or inhibition)	103.9 ± 6.5 % of control	47.17	27.00^###	NS (NS = No significant response. Significance was taken as ≧30% stimulation or inhibition)	164 ± 53 %	46.91 ± 9.97 pg/mg tissue	62.1 ± 7.0 % of control	57.1 ± 5.2 % of control
